In PMC7830545, “Rational Design of CYP3A4 Inhibitors: A One-Atom Linker Elongation in Ritonavir-Like Compounds Leads to a Marked Improvement in the Binding Strength” (International Journal of Molecular Sciences, 2021):

What was measured:
CYP3A4 [1] = molecular target: T1, CYP3A4 (Homo sapiens, UniProt P08684); assay: Inhibitory potency for BFC O-debenzylation activity in a soluble reconstituted system; assay type: biochemical; parameters: The full-length CYP3A4 and rat cytochrome P450 reductase (40 and 60 μM, respectively) were preincubated; made in house; conditions: BFC debenzylase activity, 0.1 μM CYP3A4 with cytochrome P450 reductase, no NADPH preincubation
T1 sequence (P08684 whole entry): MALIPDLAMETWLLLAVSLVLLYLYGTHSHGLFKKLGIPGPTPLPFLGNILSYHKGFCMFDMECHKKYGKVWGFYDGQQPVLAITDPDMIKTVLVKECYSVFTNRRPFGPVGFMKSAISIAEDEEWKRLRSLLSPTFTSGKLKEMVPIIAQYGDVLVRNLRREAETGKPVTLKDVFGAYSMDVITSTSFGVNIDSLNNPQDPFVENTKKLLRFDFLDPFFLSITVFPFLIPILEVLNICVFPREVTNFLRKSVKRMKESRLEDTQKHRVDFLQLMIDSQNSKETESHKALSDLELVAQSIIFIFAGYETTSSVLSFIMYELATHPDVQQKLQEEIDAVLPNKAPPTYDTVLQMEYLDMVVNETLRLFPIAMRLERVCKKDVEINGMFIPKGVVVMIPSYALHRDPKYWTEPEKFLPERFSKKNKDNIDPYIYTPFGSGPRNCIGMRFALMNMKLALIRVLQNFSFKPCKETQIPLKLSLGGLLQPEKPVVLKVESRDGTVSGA

CYP3A4 [2] = molecular target: T1, CYP3A4; assay: Thermal denaturation (melting temperature of ligand-bound CYP3A4); assay type: binding; parameters: Codon-optimized full-length and Δ3–22 human CYP3A4 were produced as reported previously [45] and used for assays and crystallization, respectively; made in house; conditions: 1 μM protein, 20 μM ligand; for ΔTm at 15 min, 20 μM: human, purified CYP3A4 protein, pH 7.4, ligand-dependent change in melting temperature; for ΔTm: ligand-dependent change in melting temperature
Description: Thermal Denaturation—Thermal denaturation curves were recorded in 0.1 M phosphate buffer, pH 7.4, in a Cary 300 spectrophotometer. Protein (1 μM) was mixed with a ligand (20 μM) and incubated for 15 min at 23 °C. Melting curves were recorded at 260 nm using a 0.2 °C measurement step, 0.9 °C/min ramp rate, and a 50–75 °C temperature range. A denaturation midpoint (melting temperature; Tm) was determined from non-linear fittings to the melting curve as described earlier.

CYP3A4 [3] = molecular target: T1, CYP3A4; assay: Stopped-flow kinetics of ligand binding; parameters: Codon-optimized full-length and Δ3–22 human CYP3A4 were produced as reported previously [45] and used for assays and crystallization, respectively; made in house; conditions: for k fast: rate constant for the fast phase of the ligand binding reaction; for percentage of the fast phase: value in brackets of k fast column
Description: (§1) Kinetics of Ligand Binding and Heme Reduction—Kinetics of ligand binding to CYP3A4 and its reduction with sodium dithionite were measured at 426 and 443 nm, respectively, in a SX.18MV stopped flow apparatus (Applied Photophysics, UK), as described earlier.

CYP3A4 [4] = molecular target: T1, CYP3A4; assay: H2O2-dependent heme depletion assay; parameters: Codon-optimized full-length and Δ3–22 human CYP3A4 were produced as reported previously [45] and used for assays and crystallization, respectively; made in house; conditions: for % decay (heme destroyed at the end of the reaction): 1.6 μM CYP3A4, 16 μM inhibitor, 10 mM H2O2, 120 min, relative to ligand-free CYP3A4 (100% decay); for heme preserved: 10 mM H2O2, end of the reaction; for higher heme loss: weaker ligands compared with the strongest binders/inhibitors
CYP3A4 [5] = molecular target: T1, CYP3A4; assay: Spectral binding titrations (equilibrium ligand binding, type II spectral change); parameters: Codon-optimized full-length and Δ3–22 human CYP3A4 were produced as reported previously [45] and used for assays and crystallization, respectively; made in house; conditions: for Kd: WT CYP3A4, 2 μM protein, pH 7.4, quadratic fits to titration plots, read-out: Ks (spectral dissociation constant); for λmax (nm) Ferric: ferric inhibitor-bound CYP3A4, Soret band; for λmax (nm) ferrous: ferrous inhibitor-bound CYP3A4, Soret band; for ΔAmax: maximal absorbance change (peak/trough in difference spectrum) relative to that induced by ritonavir; for A421/417: ratio between the absorbance maxima of ferric ligand-bound and ligand-free CYP3A4
CYP3A4 [6] = molecular target: T1, CYP3A4; assay: Kinetics of heme reduction of inhibitor-bound CYP3A4 with sodium dithionite; parameters: Codon-optimized full-length and Δ3–22 human CYP3A4 were produced as reported previously [45] and used for assays and crystallization, respectively; made in house; conditions: for portion of the protein reduced: k ET, heme reduction by sodium dithionite; for k ET: rate constant for reduction of inhibitor-bound CYP3A4 with sodium dithionite
Source text: Ritonavir-like molecules inhibit CYP3A4 not only via heme ligation and decrease in the heme redox potential but also by blocking the active site and preventing substrates from accessing the catalytic centre. We usually evaluate the heme accessibility by measuring the rate and percentage of anaerobic heme reduction by sodium dithionite, an artificial electron donor (k^ET in Table 1). […] Therefore, we utilized another method, heme bleaching with hydrogen peroxide, to probe the accessibility of the cofactor. H2O2 is a small oxidizing agent that easily penetrates the protein interior and destroys the heme without altering the P450 structure. Due to the complex, multiphasic nature of heme decay kinetics, it was more convenient to compare the percentage of heme destroyed at the end of the reaction.
as §1

K421A/K424A CYP3A4 = molecular target: T2, K421A/K424A CYP3A4 (Homo sapiens, UniProt P08684, K421A/K424A); assay: Spectral binding titrations with the K421A/K424A mutant; conditions: read-out: Ks (dissociation constant)
T2 construct: made in house
T2 sequence (P08684 with tags, fused parts or gaps K421A/K424A): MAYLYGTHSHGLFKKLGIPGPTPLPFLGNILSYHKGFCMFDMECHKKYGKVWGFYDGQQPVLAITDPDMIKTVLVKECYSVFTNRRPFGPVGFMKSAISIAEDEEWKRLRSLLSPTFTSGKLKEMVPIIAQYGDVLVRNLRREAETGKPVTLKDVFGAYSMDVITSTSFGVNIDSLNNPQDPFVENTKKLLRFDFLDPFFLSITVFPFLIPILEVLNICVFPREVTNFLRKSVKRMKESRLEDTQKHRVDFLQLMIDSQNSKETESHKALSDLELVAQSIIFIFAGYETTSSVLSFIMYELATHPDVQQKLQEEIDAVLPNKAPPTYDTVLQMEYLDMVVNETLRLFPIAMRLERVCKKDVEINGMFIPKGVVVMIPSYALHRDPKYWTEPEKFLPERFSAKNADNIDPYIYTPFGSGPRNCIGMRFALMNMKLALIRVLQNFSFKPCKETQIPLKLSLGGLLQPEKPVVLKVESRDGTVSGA

SMILES | IC50 (CYP3A4 [1]) [nM] | ΔTm at 15 min, 20 μM (CYP3A4 [2]) [°C] | k fast (CYP3A4 [3]) [s⁻¹] | percentage of the fast phase (CYP3A4 [3]) [%] | % decay (heme destroyed at the end of the reaction) (CYP3A4 [4]) [%] | heme preserved (CYP3A4 [4]) [%] | Kd (CYP3A4 [5]) [nM] | λmax (nm) Ferric (CYP3A4 [5]) [nm] | λmax (nm) ferrous (CYP3A4 [5]) [nm] | ΔAmax (CYP3A4 [5]) [%] | A421/417 (CYP3A4 [5]) | ΔTm (CYP3A4 [2]) [°C] | portion of the protein reduced (CYP3A4 [6]) [%] | k ET (CYP3A4 [6]) [s⁻¹] | higher heme loss (CYP3A4 [4]) | Kd (K421A/K424A CYP3A4) [nM] | fold decrease in Ks (CYP3A4 [5]; relative to shorter pyridyl-ethyl counterpart 7b (series IV)) [fold]
CC(C)(C)OC(=O)NC(CSC(Cc1ccccc1)C(=O)NCCCc1cccnc1)Cc1ccccc1 (centres unmarked) [Compound 3a] | 160 ± 20 | 8.1 | 12.5 | 36 | 18 | > 80 |  |  |  |  |  |  |  |  |  |  | 
CC(C)(C)OC(=O)NC(CSC(Cc1ccccc1)C(=O)NCCCc1cccnc1)Cc1ccccc1 (centres unmarked) [Compound 3b] | 300 ± 20 |  |  |  | 26 |  | 29 ± 4 | 421 | 443 | 111 | 1.08 | 5.3 | 87 | 0.014 | 4–16% |  | 
CC(C)(C)OC(=O)N[C@H](CS[C@@H](Cc1ccccc1)C(=O)NCCCc1cccnc1)Cc1ccccc1 [Compound 3c] | 310 ± 40 | 5.8 |  |  |  |  |  |  |  |  |  |  | 77 | 0.012 |  |  | 
CC(C)(C)OC(=O)N[C@@H](CS[C@H](Cc1ccccc1)C(=O)NCCCc1cccnc1)Cc1ccccc1 [Compound 3d] | 210 ± 20 | 5.6 | 12.0 | 38 | 22 |  |  |  |  |  |  |  | 95 | 0.013 |  | 19 | 
CC(C)(C)OC(=O)N[C@H](CS[C@H](Cc1ccccc1)C(=O)NCCCc1cccnc1)Cc1c[nH]c2ccccc12 [Compound 3e] | 150 ± 30 | 7.8 | 20.1 | 24 | 18 | > 80 | 19 ± 2 | 422 | 444 | 125 | 1.11 |  | 85 | 0.020 |  |  | 4
CC(C)(C)OC(=O)NC(CSC(Cc1ccccc1)C(=O)NCCCc1cccnc1)Cc1cccc2ccccc12 (centres unmarked) [Compound 3f] | 160 ± 30 | 7.9 |  |  | 15 | > 80 |  |  |  |  |  |  | 94 | 0.011 |  |  | 
CC(C)(C)OC(=O)NC(CSC(Cc1ccccc1)C(=O)NCCCc1cccnc1)Cc1cccc2ccccc12 (centres unmarked) [Compound 3g] | 300 ± 60 |  | 10.8 | 32 | 22 |  | 24 ± 6 | 422 | 444 | 111 | 1.09 | 4.9 | 75 | 0.011 | 4–16% |  | 
CC(C)(C)OC(=O)N[C@H](CS[C@@H](Cc1ccccc1)C(=O)NCCCc1cccnc1)Cc1cccc2ccccc12 [Compound 3h] | 90 ± 10 |  | 16.1 | 24 | 12 | > 80 | 7 ± 1 | 422 | 444 | 112 | 1.09 |  | 72 | 0.017 |  |  | 
CC(C)(C)OC(=O)N[C@@H](CS[C@H](Cc1ccccc1)C(=O)NCCCc1cccnc1)Cc1cccc2ccccc12 [Compound 3i] | 150 ± 20 | 5.5 | 12.3 | 24 | 23 |  | 18 ± 3 | 422 | 444 | 114 | 1.10 |  | 97 | 0.021 |  | 25 | 
CC(C)(C)OC(=O)NC(CSCC(Nc1ccccc1)C(=O)NCc1cccnc1)Cc1cccc2ccccc12 (centres unmarked) [Compound 5b, reference compound] |  |  |  |  | 25 |  |  |  |  |  |  |  |  |  |  |  | 
CC(C)(C)OC(=O)NC(CSC(Cc1ccccc1)C(=O)NCCOCc1cccnc1)Cc1ccccc1 (centres unmarked) [Compound 6] | 730 ± 60 | < 3 | 9.5 | 29 | 34 |  | 213 ± 9 | 422 | 443 | 113 | 1.07 |  | 65 | 0.017 | 4–16% |  | 
CC(C)(C)OC(=O)NC(CSCC(Nc1ccccc1)C(=O)NCCCc1cccnc1)Cc1ccccc1 (centres unmarked) [Compound 8] | 330 ± 30 | 5 | 16.2 | 30 | 22 |  | 28 ± 4 | 422 | 444 | 114 | 1.10 |  | 58 | 0.018 |  |  | 
